# Source: patent US8952024B2, “Herbicidal pyrimidone derivatives” (E I du Pont de Nemours and Company, priority 2009, dated 2015)
# Columns and labels:
# Test in all cases: Test C plant response
# Assay type in all cases: in vivo
# Settings in all cases: Postemergence, scale 0 to 100
# [1] = system: blackgrass (Alopecurus myosuroides)
# Description: (§1) Seeds of plant species selected from bluegrass (annual bluegrass, Poa annua), blackgrass (Alopecurus myosuroides), canarygrass (Phalaris minor), chickweed (common chickweed, Stellaria media), galium (catchweed bedstraw, Galium aparine), bromegrass (downy bromegrass, Bromus tectorum), field poppy (Papaver rhoeas), field violet (Viola arvensis), green foxtail (Setaria viridis), deadnettle (henbit deadnettle, Lamium amplexicaule), Italian ryegrass (Lolium multiflorum), kochia (Kochia scoparia), lambsquarters (Chenopodium album), oilseed rape (Brassica napus), pigweed (Amaranthus retroflexus), Russian thistle (Salsola iberica), spring barley (Hordeum vulgare), spring wheat (Triticum aestivum), buckwheat (wild buckwheat, Polygonum convolvulus), wild mustard (Sinapis arvensis), wild oat (Avena fatua), wild radish (Raphanus raphanistrum), windgrass (Apera spica-venti), winter barley (Hordeum vulgare), and winter wheat (Triticum aestivum) were planted and treated postemergence with test chemicals formulated in a non-phytotoxic solvent mixture which included a surfactant. Plants ranged in height from 2 to 18 cm (1- to 4-leaf stage).
# (§2) Treated plants and controls were maintained in a controlled growth environment for 14 days after which time all test plants were visually evaluated and compared to controls. Plant response ratings, summarized in Table C, are based on a scale of 0 to 100 where 0 is no effect and 100 is complete control. A dash (-) response means no test result.
# [2] = system: lambsquarters (Chenopodium album)
# Description: as §1, §2
# [3] = system: pigweed (Amaranthus retroflexus)
# Description: as §1, §2
# [4] = system: bluegrass (annual bluegrass, Poa annua)
# Description: as §1, §2
# [5] = system: oilseed rape (Brassica napus)
# Description: as §1, §2
# kochia (Kochia scoparia) = system: kochia (Kochia scoparia)
# Description: as §1, §2
# [6] = system: field violet (Viola arvensis)
# Description: as §1, §2
# [7] = system: canarygrass (Phalaris minor)
# Description: as §1, §2
# [8] = system: windgrass (Apera spica-venti)
# Description: as §1, §2
# [9] = system: Italian ryegrass (Lolium multiflorum)
# Description: as §1, §2
# [10] = system: deadnettle (henbit deadnettle, Lamium amplexicaule)
# Description: as §1, §2
compound,measurement,setting,value
Cc1cc(C)cc(-n2c(-c3ccccc3)ncc(C(=O)C3=C(O)CCCC3=O)c2=O)c1 [Compound 33],Plant response rating: Blackgrass,[1]; 31 g ai/ha,5
same,Plant response rating: Blackgrass,[1]; 16 g ai/ha,0
same,Plant response rating: Blackgrass,[1]; 62 g ai/ha,35
same,Plant response rating: Blackgrass,[1]; 125 g ai/ha,35
same,Plant response rating: Lambsquarters,[2]; 31 g ai/ha,98
same,Plant response rating: Lambsquarters,[2]; 16 g ai/ha,98
same,Plant response rating: Lambsquarters,[2]; 62 g ai/ha,100
same,Plant response rating: Lambsquarters,[2]; 125 g ai/ha,100
same,Plant response rating: Pigweed,[3]; 31 g ai/ha,95
same,Plant response rating: Pigweed,[3]; 16 g ai/ha,75
same,Plant response rating: Pigweed,[3]; 62 g ai/ha,95
same,Plant response rating: Pigweed,[3]; 125 g ai/ha,98
same,Plant response rating: Bluegrass,[4]; 31 g ai/ha,0
same,Plant response rating: Bluegrass,[4]; 16 g ai/ha,0
same,Plant response rating: Bluegrass,[4]; 62 g ai/ha,15
same,Plant response rating: Bluegrass,[4]; 125 g ai/ha,40
same,Plant response rating: Oilseed Rape,[5]; 31 g ai/ha,98
same,Plant response rating: Oilseed Rape,[5]; 16 g ai/ha,90
same,Plant response rating: Oilseed Rape,[5]; 62 g ai/ha,100
same,Plant response rating: Oilseed Rape,[5]; 125 g ai/ha,100
same,Plant response rating: Kochia,kochia (Kochia scoparia); 31 g ai/ha,50
same,Plant response rating: Kochia,kochia (Kochia scoparia); 16 g ai/ha,35
same,Plant response rating: Kochia,kochia (Kochia scoparia); 62 g ai/ha,60
same,Plant response rating: Kochia,kochia (Kochia scoparia); 125 g ai/ha,70
same,Plant response rating: Field Violet,[6]; 31 g ai/ha,90
same,Plant response rating: Field Violet,[6]; 16 g ai/ha,65
same,Plant response rating: Field Violet,[6]; 62 g ai/ha,95
same,Plant response rating: Field Violet,[6]; 125 g ai/ha,95
same,Plant response rating: Canarygrass,[7]; 31 g ai/ha,0
same,Plant response rating: Canarygrass,[7]; 16 g ai/ha,0
same,Plant response rating: Canarygrass,[7]; 62 g ai/ha,5
same,Plant response rating: Canarygrass,[7]; 125 g ai/ha,5
same,Plant response rating: Windgrass,[8]; 31 g ai/ha,20
same,Plant response rating: Windgrass,[8]; 16 g ai/ha,0
same,Plant response rating: Windgrass,[8]; 62 g ai/ha,25
same,Plant response rating: Windgrass,[8]; 125 g ai/ha,40
same,"Plant response rating: Ryegrass, Italian",[9]; 31 g ai/ha,0
same,"Plant response rating: Ryegrass, Italian",[9]; 16 g ai/ha,0
same,"Plant response rating: Ryegrass, Italian",[9]; 62 g ai/ha,10
same,"Plant response rating: Ryegrass, Italian",[9]; 125 g ai/ha,10
same,Plant response rating: Deadnettle,[10]; 31 g ai/ha,98
same,Plant response rating: Deadnettle,[10]; 16 g ai/ha,95
same,Plant response rating: Deadnettle,[10]; 62 g ai/ha,98
same,Plant response rating: Deadnettle,[10]; 125 g ai/ha,100
3-cyclohexyl-5-[(2-hydroxy-6-oxo-1-cyclohexen-1-yl)carbonyl]-2-phenyl-4(3H)-pyrimidinone [Compound 128],Plant response rating: Blackgrass,[1]; 31 g ai/ha,20
same,Plant response rating: Blackgrass,[1]; 16 g ai/ha,20
same,Plant response rating: Blackgrass,[1]; 62 g ai/ha,35
same,Plant response rating: Blackgrass,[1]; 125 g ai/ha,35
same,Plant response rating: Lambsquarters,[2]; 31 g ai/ha,98
same,Plant response rating: Lambsquarters,[2]; 16 g ai/ha,98
same,Plant response rating: Lambsquarters,[2]; 62 g ai/ha,98
same,Plant response rating: Lambsquarters,[2]; 125 g ai/ha,100
same,Plant response rating: Pigweed,[3]; 31 g ai/ha,95
same,Plant response rating: Pigweed,[3]; 16 g ai/ha,75
same,Plant response rating: Pigweed,[3]; 62 g ai/ha,95
same,Plant response rating: Pigweed,[3]; 125 g ai/ha,98
same,Plant response rating: Bluegrass,[4]; 31 g ai/ha,35
same,Plant response rating: Bluegrass,[4]; 62 g ai/ha,65
same,Plant response rating: Bluegrass,[4]; 125 g ai/ha,80
same,Plant response rating: Oilseed Rape,[5]; 31 g ai/ha,95
same,Plant response rating: Oilseed Rape,[5]; 16 g ai/ha,90
same,Plant response rating: Oilseed Rape,[5]; 62 g ai/ha,98
same,Plant response rating: Oilseed Rape,[5]; 125 g ai/ha,100
same,Plant response rating: Kochia,kochia (Kochia scoparia); 31 g ai/ha,90
same,Plant response rating: Kochia,kochia (Kochia scoparia); 16 g ai/ha,70
same,Plant response rating: Kochia,kochia (Kochia scoparia); 62 g ai/ha,95
same,Plant response rating: Kochia,kochia (Kochia scoparia); 125 g ai/ha,98
same,Plant response rating: Field Violet,[6]; 31 g ai/ha,0
same,Plant response rating: Field Violet,[6]; 16 g ai/ha,0
same,Plant response rating: Field Violet,[6]; 62 g ai/ha,35
same,Plant response rating: Field Violet,[6]; 125 g ai/ha,35
same,Plant response rating: Canarygrass,[7]; 31 g ai/ha,5
same,Plant response rating: Canarygrass,[7]; 16 g ai/ha,5
same,Plant response rating: Canarygrass,[7]; 62 g ai/ha,10
same,Plant response rating: Canarygrass,[7]; 125 g ai/ha,10
same,Plant response rating: Windgrass,[8]; 31 g ai/ha,70
same,Plant response rating: Windgrass,[8]; 16 g ai/ha,60
same,Plant response rating: Windgrass,[8]; 62 g ai/ha,85
same,Plant response rating: Windgrass,[8]; 125 g ai/ha,95
same,"Plant response rating: Ryegrass, Italian",[9]; 31 g ai/ha,5
same,"Plant response rating: Ryegrass, Italian",[9]; 16 g ai/ha,0
same,"Plant response rating: Ryegrass, Italian",[9]; 62 g ai/ha,30
same,"Plant response rating: Ryegrass, Italian",[9]; 125 g ai/ha,30
same,Plant response rating: Deadnettle,[10]; 31 g ai/ha,98
same,Plant response rating: Deadnettle,[10]; 16 g ai/ha,95
same,Plant response rating: Deadnettle,[10]; 62 g ai/ha,100
same,Plant response rating: Deadnettle,[10]; 125 g ai/ha,100
Cc1ccccc1-n1c(-c2ccccc2)ncc(C(=O)C2=C(O)CCCC2=O)c1=O [Compound 12],Plant response rating: Blackgrass,[1]; 31 g ai/ha,20
same,Plant response rating: Blackgrass,[1]; 16 g ai/ha,0
same,Plant response rating: Blackgrass,[1]; 62 g ai/ha,30
same,Plant response rating: Blackgrass,[1]; 125 g ai/ha,40
same,Plant response rating: Lambsquarters,[2]; 31 g ai/ha,80
same,Plant response rating: Lambsquarters,[2]; 16 g ai/ha,70
same,Plant response rating: Lambsquarters,[2]; 62 g ai/ha,80
same,Plant response rating: Lambsquarters,[2]; 125 g ai/ha,95
same,Plant response rating: Pigweed,[3]; 31 g ai/ha,65
same,Plant response rating: Pigweed,[3]; 16 g ai/ha,65
same,Plant response rating: Pigweed,[3]; 62 g ai/ha,75
same,Plant response rating: Pigweed,[3]; 125 g ai/ha,75
same,Plant response rating: Bluegrass,[4]; 31 g ai/ha,20
same,Plant response rating: Bluegrass,[4]; 16 g ai/ha,10
same,Plant response rating: Bluegrass,[4]; 62 g ai/ha,30
same,Plant response rating: Bluegrass,[4]; 125 g ai/ha,40
same,Plant response rating: Oilseed Rape,[5]; 31 g ai/ha,70
same,Plant response rating: Oilseed Rape,[5]; 16 g ai/ha,50
same,Plant response rating: Oilseed Rape,[5]; 62 g ai/ha,80
same,Plant response rating: Oilseed Rape,[5]; 125 g ai/ha,95
same,Plant response rating: Kochia,kochia (Kochia scoparia); 31 g ai/ha,10
same,Plant response rating: Kochia,kochia (Kochia scoparia); 16 g ai/ha,0
same,Plant response rating: Kochia,kochia (Kochia scoparia); 62 g ai/ha,35
same,Plant response rating: Kochia,kochia (Kochia scoparia); 125 g ai/ha,75
same,Plant response rating: Field Violet,[6]; 31 g ai/ha,35
same,Plant response rating: Field Violet,[6]; 16 g ai/ha,35
same,Plant response rating: Field Violet,[6]; 62 g ai/ha,40
same,Plant response rating: Field Violet,[6]; 125 g ai/ha,40
same,Plant response rating: Windgrass,[8]; 31 g ai/ha,20
same,Plant response rating: Windgrass,[8]; 16 g ai/ha,5
same,Plant response rating: Windgrass,[8]; 125 g ai/ha,50
same,"Plant response rating: Ryegrass, Italian",[9]; 31 g ai/ha,0
same,"Plant response rating: Ryegrass, Italian",[9]; 16 g ai/ha,0
same,"Plant response rating: Ryegrass, Italian",[9]; 62 g ai/ha,0
same,"Plant response rating: Ryegrass, Italian",[9]; 125 g ai/ha,0
same,Plant response rating: Deadnettle,[10]; 31 g ai/ha,100
same,Plant response rating: Deadnettle,[10]; 16 g ai/ha,100
same,Plant response rating: Deadnettle,[10]; 62 g ai/ha,100
same,Plant response rating: Deadnettle,[10]; 125 g ai/ha,100
"COc1ccc(-n2c(-c3ccccc3)ncc(C(=O)C3=C(O)CCCC3=O)c2=O)cc1 [Compound 4, 5-[(2-hydroxy-6-oxo-cyclohexen-1-yl)carbonyl]-3-(4-methoxyphenyl)-2-phenyl-4(3H)-pyrimidinone]",Plant response rating: Blackgrass,[1]; 31 g ai/ha,20
same,Plant response rating: Blackgrass,[1]; 125 g ai/ha,40
same,Plant response rating: Lambsquarters,[2]; 31 g ai/ha,100
same,Plant response rating: Lambsquarters,[2]; 125 g ai/ha,100
same,Plant response rating: Pigweed,[3]; 31 g ai/ha,95
same,Plant response rating: Pigweed,[3]; 125 g ai/ha,100
same,Plant response rating: Bluegrass,[4]; 31 g ai/ha,35
same,Plant response rating: Bluegrass,[4]; 125 g ai/ha,50
same,Plant response rating: Oilseed Rape,[5]; 31 g ai/ha,90
same,Plant response rating: Oilseed Rape,[5]; 125 g ai/ha,100
same,Plant response rating: Kochia,kochia (Kochia scoparia); 31 g ai/ha,90
same,Plant response rating: Kochia,kochia (Kochia scoparia); 125 g ai/ha,95
same,Plant response rating: Field Violet,[6]; 31 g ai/ha,40
same,Plant response rating: Field Violet,[6]; 125 g ai/ha,60
same,Plant response rating: Canarygrass,[7]; 31 g ai/ha,0
same,Plant response rating: Canarygrass,[7]; 125 g ai/ha,90
same,Plant response rating: Windgrass,[8]; 31 g ai/ha,35
same,Plant response rating: Windgrass,[8]; 125 g ai/ha,95
same,"Plant response rating: Ryegrass, Italian",[9]; 31 g ai/ha,10
same,"Plant response rating: Ryegrass, Italian",[9]; 125 g ai/ha,15
same,Plant response rating: Deadnettle,[10]; 31 g ai/ha,98
same,Plant response rating: Deadnettle,[10]; 125 g ai/ha,100
